Measured values reported in ChEMBL document CHEMBL1201862, “PubChem BioAssay data set” (2004).
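Where inhibition never reached the appropriate level, the endpoint shown equals the highest concentration tested. Otherwise, values were interpolated linearly from a five-concentration, 48-hour dose response in 96-well plates. Abbreviation: GI50, concentration required for 50% inhibition of growth.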 Active and inactive are the calls of the source. Cut-off read from the data, not from the text of the source: active = GI50 up to about 1.1 µM and inactive = higher.

Columns and labels:
Assay in all cases: NCI anticancer screen, dose series, 48 h
OVCAR-5 = tested on: OVCAR-5
PC-3 = tested on: PC-3
SF-295 = tested on: SF-295
HL-60 = tested on: HL-60
MDA-N = tested on: MDA-N
RPMI-8226 = tested on: RPMI-8226
SF-268 = tested on: SF-268
A498 = tested on: A498
LOX IMVI = tested on: LOX IMVI
BT-549 = tested on: BT-549
OVCAR-4 = tested on: OVCAR-4
IGROV-1 = tested on: IGROV-1
HCC 2998 = tested on: HCC 2998
SW-620 = tested on: SW-620
SK-MEL-2 = tested on: SK-MEL-2
EKVX = tested on: EKVX
CCRF-CEM = tested on: CCRF-CEM
K562 = tested on: K562
HCT-116 = tested on: HCT-116
SK-OV-3 = tested on: SK-OV-3

Measured: GI50

C1CNCCNCCN1
inactive: OVCAR-5 > 100 µM | PC-3 > 100 µM | SF-295 > 100 µM | HL-60 > 100 µM | MDA-N > 100 µM | RPMI-8226 > 100 µM | SF-268 > 100 µM | A498 > 100 µM | LOX IMVI > 100 µM | BT-549 > 100 µM | OVCAR-4 > 100 µM | IGROV-1 > 100 µM | HCC 2998 > 100 µM | SW-620 > 100 µM | SK-MEL-2 > 100 µM | EKVX > 100 µM | CCRF-CEM > 100 µM | K562 > 100 µM | HCT-116 > 100 µM

Cc1ccc(N)cc1.O=S(=O)(O)/C(=C\c1ccccc1)c1ccccc1
inactive: OVCAR-5 > 100 µM | PC-3 > 100 µM | SF-295 > 100 µM | HL-60 53.2 µM | MDA-N > 100 µM | RPMI-8226 > 100 µM | SF-268 > 100 µM | A498 > 100 µM | LOX IMVI > 100 µM | BT-549 > 100 µM | OVCAR-4 > 100 µM | IGROV-1 > 100 µM | SK-OV-3 > 100 µM | SW-620 > 100 µM | SK-MEL-2 > 100 µM | EKVX > 100 µM | CCRF-CEM > 100 µM | K562 > 100 µM | HCT-116 > 100 µM

COc1nc(C#CCCCC#N)nc(OC)n1
inactive: OVCAR-5 13.5 µM | PC-3 13.2 µM | SF-295 28.2 µM | HL-60 4.13 µM | MDA-N 15.7 µM | SF-268 27.3 µM | A498 20.7 µM | LOX IMVI 2.08 µM | BT-549 15.9 µM | OVCAR-4 3.82 µM | IGROV-1 17.3 µM | SK-OV-3 90.6 µM | SW-620 15 µM | SK-MEL-2 16 µM | EKVX 19.8 µM | K562 17.9 µM | HCT-116 8.79 µM

Clc1cc(Cl)cc(/N=C/C=C/Nc2cc(Cl)cc(Cl)c2)c1
inactive: OVCAR-5 21.6 µM | PC-3 16.4 µM | SF-295 23 µM | HL-60 19.1 µM | MDA-N 19.4 µM | RPMI-8226 24.5 µM | SF-268 18.9 µM | A498 21 µM | BT-549 43.3 µM | OVCAR-4 14.6 µM | IGROV-1 22.6 µM | HCC 2998 15.2 µM | SK-OV-3 35.5 µM | SW-620 19 µM | SK-MEL-2 19.9 µM | EKVX 5.12 µM | CCRF-CEM 20.8 µM | K562 23.6 µM | HCT-116 15.5 µM

CN(C)CCCNC(=O)N/N=C/c1ccc([N+](=O)[O-])cc1
inactive: OVCAR-5 > 100 µM | PC-3 > 100 µM | SF-295 78.2 µM | HL-60 > 100 µM | MDA-N 82.4 µM | SF-268 > 100 µM | A498 66.4 µM | BT-549 > 100 µM | IGROV-1 > 100 µM | HCC 2998 > 100 µM | SK-OV-3 > 100 µM | SW-620 > 100 µM | SK-MEL-2 > 100 µM | CCRF-CEM > 100 µM | K562 > 100 µM | HCT-116 > 100 µM

CCCCCCCCCCCCCC1=C(O)C(=O)C(CC2=C(O)C(=O)C(CCCCCCCCCCCCC)=C(O)C2=O)=C(O)C1=O
inactive: OVCAR-5 > 100 µM | PC-3 > 100 µM | SF-295 52 µM | HL-60 32.8 µM | MDA-N > 100 µM | SF-268 46.3 µM | A498 90.4 µM | LOX IMVI > 100 µM | BT-549 > 100 µM | IGROV-1 > 100 µM | SK-OV-3 44.7 µM | SW-620 > 100 µM | SK-MEL-2 > 100 µM | EKVX > 100 µM | CCRF-CEM 98.2 µM | K562 66.1 µM | HCT-116 > 100 µM

C[N+](C)(N)Cc1nc(-c2ccc(Cl)cc2)no1
inactive: OVCAR-5 > 100 µM | PC-3 > 100 µM | SF-295 > 100 µM | HL-60 > 100 µM | MDA-N > 100 µM | RPMI-8226 52.8 µM | A498 70 µM | LOX IMVI > 100 µM | BT-549 > 100 µM | OVCAR-4 > 100 µM | IGROV-1 > 100 µM | SK-OV-3 > 100 µM | SW-620 > 100 µM | SK-MEL-2 > 100 µM | EKVX 37.7 µM | CCRF-CEM 94.8 µM | K562 44.2 µM | HCT-116 > 100 µM

COc1ccc(C(=C(Cl)c2ccccc2)c2ccc(OC)cc2)cc1
inactive: OVCAR-5 > 100 µM | PC-3 > 100 µM | SF-295 > 100 µM | HL-60 57.8 µM | MDA-N > 100 µM | RPMI-8226 35.1 µM | SF-268 > 100 µM | A498 > 100 µM | LOX IMVI > 100 µM | BT-549 > 100 µM | OVCAR-4 > 100 µM | IGROV-1 > 100 µM | SK-OV-3 > 100 µM | SW-620 > 100 µM | SK-MEL-2 > 100 µM | EKVX > 100 µM | CCRF-CEM > 100 µM | K562 > 100 µM | HCT-116 48.1 µM

COc1ccc2cc(/C=N\NC(=O)Nc3ccc([N+](=O)[O-])cc3)ccc2c1
inactive: OVCAR-5 18.5 µM | PC-3 11.8 µM | SF-295 13.8 µM | HL-60 11 µM | MDA-N 13 µM | RPMI-8226 13.8 µM | SF-268 12.8 µM | LOX IMVI 12 µM | BT-549 12.7 µM | OVCAR-4 5.04 µM | IGROV-1 13.8 µM | HCC 2998 14.2 µM | SK-OV-3 11.9 µM | SW-620 17.5 µM | SK-MEL-2 13.3 µM | EKVX 14 µM | CCRF-CEM > 10 µM | K562 14.8 µM | HCT-116 11.6 µM

COC(=O)NC(Nc1ccc(Cl)cc1Cl)(C(F)(F)F)C(F)(F)F
inactive: OVCAR-5 > 100 µM | PC-3 15.1 µM | SF-295 > 100 µM | HL-60 29.3 µM | MDA-N 34.7 µM | RPMI-8226 31.7 µM | SF-268 60.4 µM | A498 33.2 µM | LOX IMVI 40.6 µM | BT-549 17.1 µM | IGROV-1 61.7 µM | HCC 2998 45.7 µM | SK-OV-3 73.6 µM | SW-620 30.9 µM | SK-MEL-2 > 100 µM | EKVX 48.9 µM | CCRF-CEM 28.5 µM | K562 2.85 µM | HCT-116 64.7 µM

CC(CC(N)C(=O)O)C(=O)O (centres undefined)
inactive: OVCAR-5 > 100 µM | PC-3 > 100 µM | SF-295 > 100 µM | HL-60 > 100 µM | MDA-N > 100 µM | SF-268 > 100 µM | A498 > 100 µM | LOX IMVI > 100 µM | BT-549 > 100 µM | OVCAR-4 > 100 µM | IGROV-1 > 100 µM | SW-620 > 100 µM | SK-MEL-2 > 100 µM | EKVX > 100 µM | CCRF-CEM > 100 µM | K562 > 100 µM | HCT-116 > 100 µM
